Results published in patent publication US6989155B1, “Powders” (Vectura Limited, priority 1998, dated 2006).

How the values were obtained:
Format in all cases: physicochemical
[1] = Bulk density (poured density) of powder in a 100 cm^3 measuring cylinder; conditions: L-leucine samples
Protocol: The bulk density (or poured density) of a material of the present invention is determined by the following method:
2 g of the material is poured from weighing paper into a 100 cm^3 graduated glass measuring cylinder in an upright position. Transfer of the material from the paper into the cylinder is made as rapidly as flow permits. The volume occupied by the poured powder in the cylinder is measured to the nearest 0.5 ml (bulk volume) and the weight of the powder is determined.
The bulk density of the material is calculated as the weight of the powder divided by the bulk volume.
The bulk density and particle size diameter (as VMD) were determined for the spray-dried leucine. Bulk density and VMD were determined by the method indicated above.
The bulk density and particle size distribution were determined by the methods described in respect of Example 1 above, and are given in Table 3.

[2] = Particle size distribution by low angle laser light scattering (Mastersizer X); conditions: for VMD: volume median diameter, dispersant 0.05% lecithin in cyclohexane; for D(v,90): diameter below which 90% of particles by volume reside, unit not given
Protocol: The particle size distribution was determined by low angle laser light scattering (Mastersizer X, Malvern Instruments, Malvern, UK). To approximately 5 mg of the sample to be analysed 10 ml of dispersant was added (0.05% lecithin in cyclohexane). The sample suspension was sonicated for 30 seconds before analysis. The volume median diameter (VMD) and D(v,90) were determined. VMD is the diameter such that 50% of the particles by volume have a diameter less than the VMD. D(v,90) is the equivalent volume diameter at 90% cumulative volume. The bulk density and particle size diameter (as VMD) were determined for the spray-dried leucine. Bulk density and VMD were determined by the method indicated above.

[3] = Thickness of flakes (electron microscope observation); conditions: flakes prepared by the spray drying method
From the text: Observation of the thickness of the flakes may be made by studying electron microscope (SEM) images of the particles. For example, flakes may be mounted on an electron microscope stub with double sided tape and coated with gold prior to examination on an electron microscope. An alternative method for observing the dimensions of particles of the present invention is by sizing the particles on a microscope slide in a similar way to that described in British Pharmacopoeia 1973 (page 645, Ergotamine Aerosol Inhalation). In this case a small quantity of particles, for example 10 to 100 mg, are dropped onto a microscope slide and examined under a microscope to assess the particle size of the deposit.

[4] = Flow properties: poured density, tapped density and Carr's Index; conditions: for Poured Density: 250 cm^3 measuring cylinder; for Tapped Density: tapped to constant volume
Protocol: The flow properties of the L-leucine were determined by measuring the Carr's Index of the powder. Spray-dried L-leucine was added to a powdered protein (BSA-maltodextrin 50:50).
Carr's Index of a sample was determined by measuring the volume (Vpour) of weight (W) poured into a 250 cm^3 measuring cylinder and tapping the cylinder to obtain constant volume of the sample (Vtap). The poured density (bulk density) and the tap density are calculated as W/Vpour and W/Vtap respectively and Carr's Index is calculated from the tapped density and the poured density by the formula [formula]

[5] = listed as unprocessed L-leucine

Row | Bulk Density ([1]; Example 2, Table 3) [gcm^−3] | VMD [2] | Bulk Density ([1]; Example 1, Table 1) [g cm^−3] | Compound | other results
1 | – | – | 0.035 | CC(C)C[C@H](N)C(=O)O [spray-dried D, L-leucine] | –
2 | – | 3.9 μm | 0.032 | CC(C)C[C@H](N)C(=O)O [spray-dried E, L-leucine] | D(v,90) [2]: 11.9
3 | 0.70 | – | 0.710 | CC(C)C[C@H](N)C(=O)O [unprocessed, L-leucine, reference compound] | Poured Density [4, 5]: 0.710 gcm^−3; Tapped Density [4, 5]: 0.770 gcm^−3

Continued, compound first:

Row | Compound | Bulk Density ([1]; Example 2, Table 3) [gcm^−3] | VMD [2] | Bulk Density ([1]; Example 1, Table 1) [g cm^−3] | other results
4 | CC(C)C[C@H](N)C(=O)O [condensed, L-leucine] | 0.04 | – | – | –
5 | CC(C)C[C@H](N)C(=O)O [milled, L-leucine, reference compound] | 0.30 | milled (VMD = 18 μm) | – | –
6 | CC(C)C[C@H](N)C(=O)O [spray-dried A, L-leucine] | – | 4.2 μm | 0.042 | D(v,90) [2]: 10.6
7 | CC(C)C[C@H](N)C(=O)O [spray-dried B, L-leucine] | – | – | 0.035 | –
8 | CC(C)C[C@H](N)C(=O)O [spray-dried C, L-leucine] | – | – | 0.029 | –
9 | CC(C)C[C@H](N)C(=O)O [spray-dried L-leucine, L-leucine] | – | – | – | thickness of flakes [3]: less than 100 nm; Poured Density [4]: 0.043 gcm^−3; Tapped Density [4]: 0.055 gcm^−3
